We go through 10 molecules from paper PMC10934055, “α-Glucosidase Inhibitory Phytochemical Components of Chinese Endemic Plant Whitfordiodendron filipes var. tomentosum” (Plants, 2024).

Each structure is given as a SMILES string. Like-named read-outs stand apart in the source and are kept apart here. Some results are limits rather than exact numbers.

For assay [1], the target named is T1, α-Glucosidase (Saccharomyces cerevisiae, UniProt P53341).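 Also: yeast α-glucosidase premixed with inhibitor in phosphate buffer for 15 min at 37 °C, then a further 15 min reaction with p-NPG substrate.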
T1 construct: purchased Sigma (Sigma-Aldrich) G5003
Description: biochemical. The conditions noted are these: for inhibition at 2 µg/mL / inhibition at 4 µg/mL / inhibition at 6 µg/mL / inhibition at 8 µg/mL / inhibition at 10 µg/mL: read-out: α-glucosidase inhibition rate.

Assay [2] has as its target α-glucosidase. The conditions noted are these: read-out: IC50 (α-glucosidase inhibitory activity), cited from earlier work.
Where [3] appears, read: read-out: IC50 (α-glucosidase inhibitory bioassay), baker's yeast α-glucosidase, p-NPG, pH 6.86, 37 °C.

T1 sequence (P53341 whole entry): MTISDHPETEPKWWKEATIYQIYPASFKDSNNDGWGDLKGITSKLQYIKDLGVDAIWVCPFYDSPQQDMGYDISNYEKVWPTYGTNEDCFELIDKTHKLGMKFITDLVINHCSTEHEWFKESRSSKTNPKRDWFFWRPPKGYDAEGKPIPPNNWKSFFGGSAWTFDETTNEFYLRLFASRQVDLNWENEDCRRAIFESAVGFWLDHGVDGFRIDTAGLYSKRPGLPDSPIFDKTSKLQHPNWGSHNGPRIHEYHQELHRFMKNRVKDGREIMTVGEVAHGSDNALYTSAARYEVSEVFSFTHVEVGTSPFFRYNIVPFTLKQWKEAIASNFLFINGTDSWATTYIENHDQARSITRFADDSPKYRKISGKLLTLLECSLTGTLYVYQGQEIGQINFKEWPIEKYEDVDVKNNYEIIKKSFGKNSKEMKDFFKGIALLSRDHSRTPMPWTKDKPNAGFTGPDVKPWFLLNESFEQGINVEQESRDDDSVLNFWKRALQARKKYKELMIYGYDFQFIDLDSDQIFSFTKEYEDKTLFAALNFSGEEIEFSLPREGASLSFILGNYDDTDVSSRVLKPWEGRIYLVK

Take `CC(=O)O[C@H]1CC[C@]2(C)[C@H]3CC=C4[C@@H]5CC(C)(C)CC[C@]5(C(=O)O)CC[C@@]4(C)[C@]3(C)CC[C@H]2C1(C)C` [Compound 1, 3-acetyloleanolic acid]: at α-Glucosidase [1], the “α-glucosidase inhibitory activity (judgement in words)” value (shortened to “α-glucosidase inhibitory activity”) is “significant inhibitory activities”, the inhibition at 2 µg/mL was determined as 10.1%, the inhibition at 4 µg/mL is 24.3% and the inhibition at 6 µg/mL came to 38.2%. Also, at α-Glucosidase [1], the inhibition at 8 µg/mL stood at 48.3% and the inhibition at 10 µg/mL is 56.5%. In addition, at α-Glucosidase [1] (baker's yeast α-glucosidase, p-NPG, pH 6.86, 37 °C, read-out: IC50 (α-glucosidase inhibitory bioassay)), the IC50 was 16.8 ± 0.23 µM. Moreover, on α-glucosidase [2] (compounds isolated from Coffea canephora), the IC50 is 146.9 ± 1.2 µM.
Consider `CC1(C)CC[C@]2(C(=O)O)CC[C@]3(C)C(=CC[C@@H]4[C@@]5(C)CC[C@H](O)C(C)(C)[C@@H]5CC[C@]43C)[C@@H]2C1` [Compound 2, oleanolic acid], for which, on α-Glucosidase [1], the “α-glucosidase inhibitory activity” value is “significant inhibitory activities”, the inhibition at 4 µg/mL stood at 27.8%, the inhibition at 6 µg/mL was determined as 39.9% and the inhibition at 10 µg/mL was 61.5%.
Turning to `CC(C)(O)[C@@H]1CC[C@]2(C)CC[C@]3(C)[C@H](CC[C@@H]4[C@@]5(C)CC[C@H](O)C(C)(C)[C@@H]5CC[C@]43C)[C@@H]12` [Compound 3, monogynol A], the “α-glucosidase inhibitory activity” value at α-Glucosidase [1] is “inactive”. Further, the inhibition at 2 µg/mL at α-Glucosidase [1] (concentration 2.0 μg·mL-1) was 2.2%. The inhibition at 4 µg/mL on α-Glucosidase [1] (concentration 4.0 μg·mL-1) was 3.1%. In addition, the inhibition at 6 µg/mL on α-Glucosidase [1] (concentration 6.0 μg·mL-1) amounted to 3.4%. On α-Glucosidase [1] (concentration 8.0 μg·mL-1), the inhibition at 8 µg/mL is 3.4%. Besides, on α-Glucosidase [1] (concentration 10.0 μg·mL-1), the inhibition at 10 µg/mL stood at 4.3%.
As for `C=C(C)[C@@H]1CC[C@]2(C)CC[C@]3(C)[C@H](CC[C@@H]4[C@@]5(C)CC[C@H](O)C(C)(C)[C@@H]5CC[C@]43C)[C@@H]12` [Compound 4, lupeol], at α-Glucosidase [1], the IC50 came out at 19.2 ± 0.17 µM and the “α-glucosidase inhibitory activity” value is “significant inhibitory activities”. Also, at α-Glucosidase [1] (concentration 2.0 μg·mL-1), the inhibition at 2 µg/mL stood at 12.5%. The inhibition at 4 µg/mL at α-Glucosidase [1] (concentration 4.0 μg·mL-1) amounted to 25.1%. In addition, the inhibition at 6 µg/mL on α-Glucosidase [1] (concentration 6.0 μg·mL-1) was 38.6%. Moreover, on α-Glucosidase [1] (concentration 8.0 μg·mL-1), the inhibition at 8 µg/mL came to 49.2%. For the same molecule, the inhibition at 10 µg/mL at α-Glucosidase [1] (concentration 10.0 μg·mL-1) came out at 58.4%. Further, the IC50 at α-glucosidase [2] (compound isolated from Sabia parviflora) was 452 ± 5.3 µM.
Consider `CC(C)(O)[C@@H]1CC[C@]2(C)CC[C@]3(C)[C@H](CC[C@@H]4[C@@]5(C)CCC(=O)C(C)(C)[C@@H]5CC[C@]43C)[C@@H]12` [Compound 5, 20-hydroxy-lupan-3-one], for which the “α-glucosidase inhibitory activity” value on α-Glucosidase [1] was “inactive”. The inhibition at 2 µg/mL at α-Glucosidase [1] (concentration 2.0 μg·mL-1) worked out at 7.2%. The inhibition at 4 µg/mL on α-Glucosidase [1] (concentration 4.0 μg·mL-1) amounted to 9.3%. Moreover, the inhibition at 6 µg/mL at α-Glucosidase [1] (concentration 6.0 μg·mL-1) came to 11%. The inhibition at 8 µg/mL at α-Glucosidase [1] (concentration 8.0 μg·mL-1) is 13.4%. The inhibition at 10 µg/mL at α-Glucosidase [1] (concentration 10.0 μg·mL-1) worked out at 15.8%. Also, the IC50 at α-Glucosidase [1] (setting [3]) was under 100 µM.
Take `C=C(C)[C@@H]1CC[C@]2(C(=O)O)CC[C@]3(C)[C@H](CC[C@@H]4[C@@]5(C)CCC(=O)C(C)(C)[C@@H]5CC[C@]43C)[C@@H]12` [Compound 6, betulonic acid]: on α-Glucosidase [1], half-maximal inhibition (IC50) required 17.2 ± 0.27 µM and the “α-glucosidase inhibitory activity” value is reported as “significant inhibitory activities”. Also, the inhibition at 2 µg/mL on α-Glucosidase [1] (concentration 2.0 μg·mL-1) amounted to 10.1%. Also, the inhibition at 4 µg/mL at α-Glucosidase [1] (concentration 4.0 μg·mL-1) amounted to 24.3%. Further, the inhibition at 6 µg/mL at α-Glucosidase [1] (concentration 6.0 μg·mL-1) worked out at 38.2%. Besides, the inhibition at 8 µg/mL at α-Glucosidase [1] (concentration 8.0 μg·mL-1) was determined as 51.7%. Besides, on α-Glucosidase [1] (concentration 10.0 μg·mL-1), the inhibition at 10 µg/mL came to 60.5%. Besides, on α-glucosidase [2] (compound isolated from Buddleja saligna), the IC50 was 60.1 µM.
For `CC(=O)O[C@H]1CC[C@]2(C)[C@H]3CC[C@@H]4[C@@H]([C@@](C)(O)CCC=C(C)C)CC[C@@]4(C)[C@]3(C)CC[C@H]2C1(C)C` [Compound 8, dammar-24-ene-3β-acetoxy-20S-ol], the inhibition at 2 µg/mL on α-Glucosidase [1] (concentration 2.0 μg·mL-1) worked out at 3.7%. The inhibition at 4 µg/mL on α-Glucosidase [1] (concentration 4.0 μg·mL-1) is 6.2%. Moreover, the inhibition at 6 µg/mL at α-Glucosidase [1] (concentration 6.0 μg·mL-1) came out at 8.1%. Further, at α-Glucosidase [1] (concentration 8.0 μg·mL-1), the inhibition at 8 µg/mL was 10.2%. Also, the inhibition at 10 µg/mL at α-Glucosidase [1] (concentration 10.0 μg·mL-1) amounted to 11.1%. Also, the IC50 at α-Glucosidase [1] (setting [3]) was under 100 µM.
With `CCC(CC[C@@H](C)[C@H]1CC[C@H]2[C@@H]3CCC4=CC(=O)CC[C@]4(C)[C@H]3CC[C@]12C)C(C)C` (stereo partly drawn) [Compound 9, (20R)-24-ethylcholest-4-en-3-one], the IC50 at α-Glucosidase [1] (setting [3]) is under 100 µM. Moreover, on α-Glucosidase [1], the inhibition at 2 µg/mL was 6.1%, the inhibition at 4 µg/mL was found to be 8.3%, the inhibition at 6 µg/mL was found to be 12.2% and the inhibition at 8 µg/mL worked out at 15.6%. Also, on α-Glucosidase [1], the inhibition at 10 µg/mL worked out at 17.5%.
For the molecule `CC[C@H](/C=C/[C@@H](C)[C@H]1CC[C@H]2[C@@H]3CC=C4C[C@@H](O)CC[C@]4(C)[C@H]3CC[C@]12C)C(C)C` [Compound 10, stigmasterol], the IC50 on α-Glucosidase [1] (setting [3]) was under 100 µM. Besides, at α-Glucosidase [1], the inhibition at 2 µg/mL is 2.4%, the inhibition at 4 µg/mL worked out at 4.3%, the inhibition at 6 µg/mL was determined as 7.1% and the inhibition at 8 µg/mL was determined as 9.6%. For the same molecule, the inhibition at 10 µg/mL on α-Glucosidase [1] amounted to 10.1%.
In the case of `C[C@H]1O[C@H](O[C@H]2[C@H](O)[C@@H](O)[C@@H](O[C@H]3[C@H](O)[C@@H](O)C(O)O[C@@H]3CO)O[C@@H]2CO)[C@H](O)[C@@H](O)[C@@H]1N[C@H]1C=C(CO)[C@@H](O)[C@H](O)[C@H]1O` (stereo partly shown) [acarbose, reference compound], at α-Glucosidase [1], the inhibition at 2 µg/mL worked out at 11.1%, the inhibition at 4 µg/mL is 25.3%, the inhibition at 6 µg/mL worked out at 37.9% and the inhibition at 8 µg/mL is 52.4%. The inhibition at 10 µg/mL at α-Glucosidase [1] turned out to be 65.7%.

For orientation: IC50 means the midpoint of a concentration-inhibition curve. The term inhibition denotes the drop in the measured response relative to a control, in per cent.
